Measured values published in US11746354B2, “Homology dependent repair genome editing” (Inari Agriculture Technology, Inc., priority 2019, dated 2023).

Tested on: maize (Zea mays) r1-colored1 gene
Assay: HDR editing of an endogenous gene in maize protoplasts (RNP + dsDNA donor template, MiSeq sequencing)
Assay type: cell-based
Parameters: unit not given here
Settings: 5 μM compound, 0.1% DMSO, B104 maize protoplasts, 48 hours at 26 degrees Celsius in the dark, average of triplicate samples; for Hypoxia Avg. (HDR): hypoxic conditions; for Normoxia Avg. (HDR): normoxic conditions
Experimental: This example describes a second set of experiments which investigated the effects of the 81 small molecules previously identified in the “traffic light” screen (Example 1) on HDR efficiency in editing an endogenous gene, the maize (Zea mays) r1-colored1 gene with partial genomic sequence SEQ ID NO: 5. A ribonucleoprotein (RNP) was prepared with a guide RNA designed to edit the promoter located at positions 313-333 of SEQ ID NO:5. A donor template was provided as a dsDNA for HDR repair. The experiments were carried out with protoplasts produced from etiolated leaves of B104 maize grown in the dark for 11 days. The protoplasts were co-transfected with the RNP and donor template. Transfected cells were incubated 48 hours at 26 degrees Celsius in the dark under either normoxic or hypoxic conditions with the indicated negative controls, positive controls, and small molecules and then harvested. The negative controls comprised cells transfected with the RNP only (no donor template). DMSO controls comprised the RNP and donor template and DMSO at a final concentration of 0.5% by volume DMSO. The positive control was a mixture of KU-0060648 (CAS No. 881375-00-4; Fischer Scientific, Waltham, Mass., USA), STL127705 (7-[2-(3,4-dimethoxyphenyl)ethyl]amino-3-(3-fluorophenyl)pyrimido[4,5-d]pyrimidine-2,4(1H,3H)-dione); Vitas-M, Champaign, Ill., USA), NU7441 (CAS No. 503468-95-9; Fischer Scientific Waltham, Mass., USA), and SCR7 pyrazine (CAS No. 14892-97-8; Tocris, Minneapolis, Minn., USA) (all at a stock concentration of 5 mM in DMSO) that was provided to the protoplasts at a final concentration of each of the four compounds of 5 μM. Certain positive control compounds have been reported to increase CRISPR-mediated HDR (Robert et al. 2015; Chu et al., 2015). All of the tested small molecules were also provided to the protoplasts at a final concentration of 5 μM of the compound and a final DMSO concentration of 0.1% by volume. Genomic DNA was isolated using KAPA Pure Bead capture (Kapa Biosystem) and the isolated gDNA was used as the template for a PCR with PHUSION FLASH (ThermoFisher). Samples were cleaned with KAPA Pure Bead capture and Illumina libraries were prepared and sequenced on MiSeq.

Compound | Hypoxia Avg. (HDR) | Normoxia Avg. (HDR)
Nc1nc(Cl)nc2c1ncn2[C@@H]1O[C@H](CO)[C@@H](O)[C@H]1O [2-Chloroadenosine] | 5.00 | 2.45
CN(C)NC(=O)CCC(=O)O [Daminozide] | 0.48 | 4.57
Cc1oc(-c2ccccc2)nc1CCOc1ccc(CC2SC(=O)NC2=O)c2sccc12 (stereo not drawn) [Edaglitazone] | 6.28 | 3.56
CC(C)Cn1c(=O)n(C)c(=O)c2nc[nH]c21 [IBMX] | 4.23 | 3.05
Cc1ccc(C(=O)N(CCCN)[C@@H](c2[nH]c3cc(Cl)ccc3c(=O)[n+]2Cc2ccccc2)C(C)C)cc1 [Ispinesib] | 4.04 | 3.36
CC(=O)NCCNc1cc(Cl)nn2c(-c3cccc(S(=O)(=O)N(C)C)c3)c(C)nc12 [MI 14] | 7.75 | 0.37
c1ccc(-c2ccc(CNc3nc(-c4ccccn4)nnc3-c3ccccc3)cc2)cc1 [ML 228] | 4.49 | 0.46
CSc1nc(-c2ccc(F)cc2)c(-c2ccnc(NC(C)c3ccccc3)c2)[nH]1 (stereo not drawn) [ML 3403] | 4.36 | 1.47
Nc1nccc(-c2ccc3noc(-c4ccc(Cl)cc4)c3c2)n1 [PIM-1 Inhibitor 2] | 5.19 | 1.37
CC(=O)[C@H]1CC[C@H]2[C@@H]3CC[C@@H]4C[C@H](O)CC[C@]4(C)[C@H]3CC[C@]12C [Pregnanolone] | 2.52 | 4.43
O=C1N=C(NCc2cccs2)S/C1=C\c1ccc2ncccc2c1 [Ro 3306] | 4.91 | 1.64
CN(CCOc1ccc(CC2SC(=O)NC2=O)cc1)c1ccccn1 (stereo not drawn) [Rosiglitazone] | 4.97 | 3.20
Cc1ccc(C(=O)N(CCCN)[C@@H](c2oc3cc(Cl)ccc3c(=O)c2Cc2ccccc2)C(C)C)cc1.Cl [SB 743921 Hydrochloride] | 2.97 | 4.76
O=S(=O)(NCCCCCCc1ccccc1)c1cccc2c(Cl)cccc12 [SC-9] | 5.11 | 2.67
CC(C)(C)c1ccc(S(=O)(=O)NCc2ccc(C(=O)Nc3cccnc3)cc2)cc1 [STF 31] | 5.00 | 0.40
